Reference: PubChem BioAssay (NCI)
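Grown in 96-well plates, cells were treated for 48 hours with each compound at five concentrations. Insufficient inhibition: endpoint recorded as highest concentration tested. GI50 marks 50% less growth. TGI is the concentration that stops growth completely.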

What was measured:
Assay in all cases: DTP human tumour cell line panel, 48 h
786-0 renal = test system: 786-0 renal
A549 NSCLC = test system: A549 NSCLC
ACHN renal = test system: ACHN renal
BT-549 breast = test system: BT-549 breast
CAKI-1 renal = test system: CAKI-1 renal
CCRF-CEM leukemia = test system: CCRF-CEM leukemia
COLO 205 colon = test system: COLO 205 colon
DU-145 prostate = test system: DU-145 prostate
EKVX NSCLC = test system: EKVX NSCLC
HCT-116 colon = test system: HCT-116 colon
HCT-15 colon = test system: HCT-15 colon
HL-60(TB) leukemia = test system: HL-60(TB) leukemia
HOP-62 NSCLC = test system: HOP-62 NSCLC
HOP-92 NSCLC = test system: HOP-92 NSCLC
HS 578T breast = test system: HS 578T breast
HT29 colon = test system: HT29 colon
IGROV1 ovarian = test system: IGROV1 ovarian
KM12 colon = test system: KM12 colon
LOX IMVI melanoma = test system: LOX IMVI melanoma
M14 melanoma = test system: M14 melanoma
MALME-3M melanoma = test system: MALME-3M melanoma
MDA-MB-231 breast = test system: MDA-MB-231 breast
MDA-MB-435 = test system: MDA-MB-435
MOLT-4 leukemia = test system: MOLT-4 leukemia
NCI-H226 lung = test system: NCI-H226 lung
NCI-H23 lung = test system: NCI-H23 lung
NCI-H460 lung = test system: NCI-H460 lung
NCI/ADR-RES ovarian = test system: NCI/ADR-RES ovarian
OVCAR-3 ovarian = test system: OVCAR-3 ovarian
OVCAR-4 ovarian = test system: OVCAR-4 ovarian
OVCAR-5 ovarian = test system: OVCAR-5 ovarian
OVCAR-8 ovarian = test system: OVCAR-8 ovarian
PC-3 prostate = test system: PC-3 prostate
RPMI-8226 leukemia = test system: RPMI-8226 leukemia
RXF 393 renal = test system: RXF 393 renal
SF-268 CNS = test system: SF-268 CNS
SF-295 CNS = test system: SF-295 CNS
SF-539 CNS = test system: SF-539 CNS
SK-MEL-2 melanoma = test system: SK-MEL-2 melanoma
SK-MEL-28 melanoma = test system: SK-MEL-28 melanoma
SK-MEL-5 melanoma = test system: SK-MEL-5 melanoma
SK-OV-3 ovarian = test system: SK-OV-3 ovarian
SN12C renal = test system: SN12C renal
SNB-19 CNS = test system: SNB-19 CNS
SNB-75 CNS = test system: SNB-75 CNS
SR leukemia = test system: SR leukemia
TK-10 renal = test system: TK-10 renal
U251 CNS = test system: U251 CNS
UACC-257 melanoma = test system: UACC-257 melanoma
UACC-62 melanoma = test system: UACC-62 melanoma
A498 renal = test system: A498 renal
HCC-2998 colon = test system: HCC-2998 colon
K-562 leukemia = test system: K-562 leukemia
MCF7 breast = test system: MCF7 breast
NCI-H522 lung = test system: NCI-H522 lung
SW-620 colon = test system: SW-620 colon
T-47D breast = test system: T-47D breast
UO-31 renal = test system: UO-31 renal

## CC(=O)NCCSC(=O)c1ccccc1
786-0 renal
  TGI: 0.425 µM
A549 NSCLC
  TGI: 2.06 µM
ACHN renal
  TGI: 0.0971 µM
BT-549 breast
  TGI: 3.75 µM
CAKI-1 renal
  TGI: 0.239 µM
CCRF-CEM leukemia
  TGI: 0.49 µM
COLO 205 colon
  TGI: 0.516 µM
DU-145 prostate
  TGI: 2.62 µM
EKVX NSCLC
  TGI: 8.24 µM
HCT-116 colon
  TGI: 0.275 µM
HCT-15 colon
  TGI: 1.04 µM
HL-60(TB) leukemia
  GI50: 0.026 µM
  TGI: 0.829 µM
HOP-62 NSCLC
  TGI: 0.525 µM
HOP-92 NSCLC
  TGI: 15.5 µM
HS 578T breast
  TGI: 5.52 µM
HT29 colon
  TGI: > 78.2 µM
IGROV1 ovarian
  TGI: > 29.6 µM
KM12 colon
  TGI: 2.54 µM
LOX IMVI melanoma
  TGI: 0.306 µM
M14 melanoma
  TGI: 0.242 µM
MALME-3M melanoma
  TGI: 0.304 µM
MDA-MB-231 breast
  TGI: 7.71 µM
MDA-MB-435
  TGI: 0.371 µM
MOLT-4 leukemia
  TGI: 0.0902 µM
NCI-H226 lung
  TGI: 0.413 µM
NCI-H23 lung
  TGI: 0.191 µM
NCI-H460 lung
  TGI: 6.44 µM
NCI/ADR-RES ovarian
  TGI: 0.688 µM
OVCAR-3 ovarian
  TGI: 0.944 µM
OVCAR-4 ovarian
  TGI: > 42.8 µM
OVCAR-5 ovarian
  TGI: 0.527 µM
OVCAR-8 ovarian
  TGI: 0.81 µM
PC-3 prostate
  TGI: 4.07 µM
RPMI-8226 leukemia
  TGI: 2.26 µM
RXF 393 renal
  TGI: 0.958 µM
SF-268 CNS
  TGI: 2.02 µM
SF-295 CNS
  TGI: 0.83 µM
SF-539 CNS
  TGI: 1.39 µM
SK-MEL-2 melanoma
  TGI: 0.827 µM
SK-MEL-28 melanoma
  TGI: 1.14 µM
SK-MEL-5 melanoma
  TGI: 0.0801 µM
SK-OV-3 ovarian
  TGI: 14.8 µM
SN12C renal
  TGI: 0.492 µM
SNB-19 CNS
  TGI: 15.2 µM
SNB-75 CNS
  TGI: 12.4 µM
SR leukemia
  TGI: 0.66 µM
TK-10 renal
  TGI: 0.475 µM
U251 CNS
  TGI: 0.759 µM
UACC-257 melanoma
  TGI: 0.419 µM
UACC-62 melanoma
  TGI: 0.0786 µM

## CC(CN1CCN(C)CC1)CN1c2ccccc2Sc2ccc(C(F)(F)F)cc21 (centres undefined)
786-0 renal
  GI50: 1.66 µM
  TGI: 3.12 µM
A498 renal
  GI50: 2.98 µM
  TGI: 15.2 µM
A549 NSCLC
  GI50: 1.85 µM
  TGI: 3.49 µM
ACHN renal
  GI50: 1.67 µM
  TGI: 3.27 µM
CAKI-1 renal
  GI50: 2.6 µM
  TGI: 11 µM
CCRF-CEM leukemia
  GI50: 2.6 µM
  TGI: 6.74 µM
COLO 205 colon
  GI50: 1.89 µM
  TGI: 3.65 µM
DU-145 prostate
  GI50: 2.8 µM
  TGI: 6.99 µM
EKVX NSCLC
  GI50: 2.1 µM
  TGI: 5.38 µM
HCC-2998 colon
  GI50: 1.63 µM
  TGI: 3.07 µM
HCT-116 colon
  GI50: 1.68 µM
  TGI: 3.07 µM
HCT-15 colon
  GI50: 1.81 µM
  TGI: 3.95 µM
HL-60(TB) leukemia
  GI50: 1.92 µM
  TGI: 4.1 µM
HOP-62 NSCLC
  GI50: 1.71 µM
  TGI: 3.17 µM
HOP-92 NSCLC
  GI50: 1.25 µM
  TGI: 4.38 µM
HS 578T breast
  GI50: 1.88 µM
  TGI: 5.8 µM
HT29 colon
  GI50: 1.8 µM
  TGI: 3.27 µM
IGROV1 ovarian
  GI50: 2.77 µM
  TGI: 10.2 µM
K-562 leukemia
  GI50: 1.76 µM
  TGI: 4.21 µM
KM12 colon
  GI50: 1.95 µM
  TGI: 3.52 µM
LOX IMVI melanoma
  GI50: 1.68 µM
  TGI: 3.25 µM
M14 melanoma
  GI50: 1.75 µM
  TGI: 3.25 µM
MALME-3M melanoma
  GI50: 1.72 µM
  TGI: 3.72 µM
MCF7 breast
  GI50: 1.64 µM
  TGI: 3.16 µM
MDA-MB-231 breast
  GI50: 1.36 µM
  TGI: 2.82 µM
MDA-MB-435
  GI50: 1.8 µM
  TGI: 3.6 µM
MOLT-4 leukemia
  GI50: 2.05 µM
  TGI: 4.77 µM
NCI-H226 lung
  GI50: 2.6 µM
  TGI: 8.51 µM
NCI-H23 lung
  GI50: 1.83 µM
  TGI: 4.05 µM
NCI-H460 lung
  GI50: 1.93 µM
  TGI: 3.84 µM
NCI-H522 lung
  GI50: 1.79 µM
  TGI: 3.37 µM
NCI/ADR-RES ovarian
  GI50: 1.94 µM
  TGI: 4.94 µM
OVCAR-3 ovarian
  GI50: 2.04 µM
  TGI: 4.16 µM
OVCAR-4 ovarian
  GI50: 2.16 µM
  TGI: 4.4 µM
OVCAR-5 ovarian
  GI50: 1.53 µM
  TGI: 3.13 µM
OVCAR-8 ovarian
  GI50: 1.76 µM
  TGI: 3.34 µM
PC-3 prostate
  GI50: 2.09 µM
  TGI: 5.21 µM
RPMI-8226 leukemia
  GI50: 2.43 µM
  TGI: 5.49 µM
RXF 393 renal
  GI50: 1.64 µM
  TGI: 3.03 µM
SF-268 CNS
  GI50: 3.1 µM
  TGI: 9.29 µM
SF-295 CNS
  GI50: 1.97 µM
  TGI: 4.31 µM
SF-539 CNS
  GI50: 1.67 µM
  TGI: 3.59 µM
SK-MEL-2 melanoma
  GI50: 2.09 µM
  TGI: 3.74 µM
SK-MEL-28 melanoma
  GI50: 1.91 µM
  TGI: 3.42 µM
SK-MEL-5 melanoma
  GI50: 1.61 µM
  TGI: 2.99 µM
SN12C renal
  GI50: 4.07 µM
  TGI: 14.5 µM
SNB-19 CNS
  GI50: 2.08 µM
  TGI: 4.32 µM
SNB-75 CNS
  GI50: 2.21 µM
  TGI: 7.85 µM
SR leukemia
  GI50: 2.01 µM
  TGI: 5.32 µM
SW-620 colon
  GI50: 1.83 µM
  TGI: 3.67 µM
T-47D breast
  GI50: 1.89 µM
  TGI: 4.55 µM
TK-10 renal
  GI50: 1.85 µM
  TGI: 3.3 µM
U251 CNS
  GI50: 1.68 µM
  TGI: 3.12 µM
UACC-257 melanoma
  GI50: 1.89 µM
  TGI: 3.81 µM
UACC-62 melanoma
  GI50: 2.09 µM
  TGI: 4.18 µM
UO-31 renal
  GI50: 1.8 µM
  TGI: 6.4 µM

## C=CC(=O)N1CCN(c2nc(OC[C@@H]3CCCN3C)nc3c2CCN(c2cccc4cccc(C)c24)C3)C[C@@H]1CC#N
ACHN renal
  GI50: 0.953 µM
  TGI: 2.14 µM
BT-549 breast
  GI50: 1.58 µM
  TGI: 3.08 µM
CAKI-1 renal
  GI50: 1.18 µM
  TGI: 2.46 µM
CCRF-CEM leukemia
  GI50: 0.475 µM
  TGI: 2.78 µM
HCT-15 colon
  GI50: 1.45 µM
  TGI: 2.92 µM
HOP-62 NSCLC
  GI50: < 0.01 µM
  TGI: 1.64 µM
HS 578T breast
  GI50: 1.71 µM
  TGI: 4.53 µM
K-562 leukemia
  GI50: 1.71 µM
  TGI: 4.28 µM
M14 melanoma
  GI50: 1.82 µM
  TGI: 3.57 µM
MDA-MB-231 breast
  GI50: 1.39 µM
  TGI: 2.78 µM
MDA-MB-435
  GI50: 1.7 µM
  TGI: 3.19 µM
NCI-H23 lung
  GI50: < 0.01 µM
  TGI: 1.5 µM
OVCAR-5 ovarian
  GI50: 1.58 µM
  TGI: 3.26 µM
SF-295 CNS
  GI50: 1.53 µM
  TGI: 2.9 µM
SF-539 CNS
  GI50: 1.63 µM
  TGI: 3.04 µM
SK-MEL-28 melanoma
  GI50: 1.71 µM
  TGI: 3.09 µM
SK-MEL-5 melanoma
  GI50: 1.68 µM
  TGI: 3.06 µM
SK-OV-3 ovarian
  GI50: 1.68 µM
  TGI: 3.17 µM
SN12C renal
  GI50: 1.46 µM
  TGI: 2.87 µM
SNB-19 CNS
  GI50: 1.59 µM
  TGI: 2.99 µM
SNB-75 CNS
  GI50: 1.09 µM
  TGI: 2.31 µM
UACC-257 melanoma
  GI50: 1.79 µM
  TGI: 3.74 µM
UO-31 renal
  GI50: 1.28 µM
  TGI: 2.54 µM
